Reference: patent publication US20240158418A1 (C4 Therapeutics, Inc., priority 2021, published 2024)
Read-outs that look alike come from different tables or passages of the source.

Legend:
[1] = tested on: BaF3 cells expressing EGFR L858R-L792H; experiment: Ba/F3 EGFR cell viability (CellTiter-Glo), L858R-L792H; format: cell-based; settings: Mus musculus, read-out: CTGlo (GI50)
Source text: (§1) RPMI 1640 media, cell culture flasks, and 384-well microplates were purchased from VWR (Radnor, PA, USA). Fetal bovine serum (FBS) was purchased from Life Technologies (Carlsbad, CA, USA) and CellTiter-Glo® was purchased from Promega (Madison, WI, USA). The Ba/F3 parental cell line was purchased from CrownBio (Santa Clara, CA). BaF3 cell lines ectopically expressing the EGFR mutations L858R, L858R-T790M, L858R-C797S, and L858R-T790M-C797S were purchased from CrownBio and EGFR mutations L858R-L718Q, L858R-T790M-L718Q, L858R-L792H, and L858R-T790M-L792H, were purchased from Signosis (Santa Clara, CA).
(§2) Cell viability was assessed based on the quantification of ATP using the CellTiter-Glo® assay (Promega, Madison, WI, USA). To determine the effect of compounds on cell viability, all Ba/F3 cell lines were plated at a cell density of 2000 cells/well in 384-well plates using RPMI 1640+10% FBS and treated with compounds of interest using a 10-point half-log dilution series in duplicate for 72 hours, with the highest dose set at […]. CellTiter-Glo® reagent was then added and luminescence signals were measured using an EnVision™ Multimode plate reader (Perkin Elmer, Santa Clara, CA). For data normalization, cells untreated with the test compounds at Time=72 hours were set to 100% (equivalent to maximal cell growth after 72 hours); cells untreated with the test compounds at Time=0 hours were set to 0% (equivalent to cytostasis); and media-only wells were set to −100% (equivalent to complete cytotoxicity). % Viability was determined by normalizing the signal with positive and DMSO treated negative controls on the same microtiter plate. The half-maximal inhibition of cell growth (GI50) is computed from where the fitted curve crosses 50% while the half-maximal lethal dose (LD50) is computed from where the fitted curve crosses −50%.

EGFR WT = target: T1, EGFR WT (Homo sapiens, UniProt P00533); experiment: EGFR degradation, Total EGFR (pan-EGFR) HTRF, A431; format: cell-based; settings: A431 (wild-type), 6 hours; read-out: tEGFR DC50
T1 construct: A431 (harboring EGFR wildtype) was purchased from ATCC; host or cells: A431
Source text: NCI-H1975 (harboring EGFR heterozygous L858R-T790M mutations) and NCI-H3255 (harboring EGFR heterozygous L858R mutation) were purchased from ATCC and NCI, respectively. NCI-H1975+CS (harboring EGFR heterozygous L858R-T790M-C797S mutations) was generated using CRISPR technology to introduce the additional C797S mutation by Horizon Discovery. A431 (harboring EGFR wildtype) was purchased from ATCC. RPMI 1640 no-phenol red medium and fetal bovine serum (FBS) were purchased from Gibco (Grand Island, NY, USA). Cell culture flasks and 384-well microplates were acquired from VWR (Radnor, PA, USA). Phosphorylated (pY1068) EGFR and Total EGFR (using L858R-specific detection antibody and pan-EGFR antibody for EGFR mutant cell lines and EGFR wild-type cell lines, respectively) HTRF assay kits were purchased from Cisbio (Bedford, MA, USA).
Degradation of EGFR protein containing L858R mutation or wild-type was determined based on quantification of FRET signal using a Total EGFR (L858R-specific or pan-EGFR detecting) HTRF assay kit. Phospho-EGFR (pEGFR) inhibition was determined based on quantification of FRET signal using a pY1068 EGFR HTRF assay kit. In separate assay plates, test compounds were added to the 384-well plate from a top concentration of 10 μM with 11 points, half log titration in duplicates. For each assay, 12.5 uL of cells suspended in assay media (RPMI 1640 no-phenol red medium+10% FBS) at cell densities indicated for each cell line in Table 8 below were dispensed using a multi-channel pipette to 384-well low volume white HTRF microplates containing a duplicate concentration range of test compounds and DMSO controls. The plates were kept at 37° C. with 5% CO2 for 6 hours and then incubated with either phospho EGFR or Total EGFR HTRF detection antibodies according to the cell line and EGFR mutant being assayed. Cells treated in the absence of the test compound were the negative control. Positive control was set by wells containing all reagents but no cells. FRET signal was acquired on EnVision™ Multilabel Reader (PerkinElmer, Santa Clara, CA, USA). Compound concentration that achieves 50% degradation and inhibition was reported as DC50 and IC50, respectively.

[2] = tested on: intracranial NCI-H1975-luciferase expressing tumors; experiment: NCI-H1975-luc intracranial tumor model (intracarotid artery injection): BLI, body weight, survival; format: in vivo, female BALB/c nude mice; settings: intracranial model with intracarotid implantation, oral dosing
Description: Female BALB/c nude mice were inoculated by intracarotid injection with NCI-H1975-luc cells (1×10^5 in 100 μL PBS) for tumor development. Tumor growth was monitored using imaging analysis. Tumor-bearing mice were weighed and injected intraperitoneally with luciferin at a dose of 150 mg/kg and anesthetized with a mixture gas of oxygen and isoflurane. 10 minutes post luciferin injection, mice were imaged using IVIS Lumina III machine and total bioluminescence signal (BLI, photons/s) was measured in a region of interest (ROI). BLI from ROI were quantified and used as an indicator of tumor burden. Twenty days post tumor cell inoculation mice were randomized into groups of 6 with a mean BLI of 1.08×10^6 photons/s. Compound 1 was dosed orally (PO) twice a day at 50 mg/kg and was formulated in 20% PEG400+80% (25% SBECD, “sulfobutylether-β-cyclodextrin”) in double distilled H2Om which was also used as the vehicle control. Body weight and MTV were measured on a 2× weekly schedule. Survival data was also measured and is represented as median survival time±SEM.

[3] = tested on: BaF3 cells expressing EGFR L858R; experiment: Ba/F3 EGFR cell viability (CellTiter-Glo), L858R; format: cell-based; settings: Mus musculus, read-out: CTGlo (GI50)
Source text: as §1, §2

EGFR L858R-T790M = target: T2, EGFR L858R-T790M (Homo sapiens, UniProt P00533, L858R/T790M); experiment: EGFR degradation, Total EGFR (L858R-specific) HTRF, NCI-H1975; format: cell-based; settings: 6 hours
T2 construct: NCI-H1975 (harboring EGFR heterozygous L858R-T790M mutations); host or cells: NCI-H1975
In short: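 FRET signal from HTRF kits measured phospho-EGFR at pY1068 or total EGFR after 6 h treatment at 37 °C. Compounds ran as 11-point half-log dilutions from 10 μM in duplicate, in cells in phenol red-free RPMI with 10% FBS. Concentrations giving 50% inhibition or degradation were reported as IC50 or DC50.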

[4] = H1975 (L858R-T790M), read-out: tEGFR DC50
[5] = Table 9A, NCI-H1975 cells, Total EGFR HTRF, read-out: H1975 EGFR DC50

T2 sequence (P00533 25-1210 T790M/L858R): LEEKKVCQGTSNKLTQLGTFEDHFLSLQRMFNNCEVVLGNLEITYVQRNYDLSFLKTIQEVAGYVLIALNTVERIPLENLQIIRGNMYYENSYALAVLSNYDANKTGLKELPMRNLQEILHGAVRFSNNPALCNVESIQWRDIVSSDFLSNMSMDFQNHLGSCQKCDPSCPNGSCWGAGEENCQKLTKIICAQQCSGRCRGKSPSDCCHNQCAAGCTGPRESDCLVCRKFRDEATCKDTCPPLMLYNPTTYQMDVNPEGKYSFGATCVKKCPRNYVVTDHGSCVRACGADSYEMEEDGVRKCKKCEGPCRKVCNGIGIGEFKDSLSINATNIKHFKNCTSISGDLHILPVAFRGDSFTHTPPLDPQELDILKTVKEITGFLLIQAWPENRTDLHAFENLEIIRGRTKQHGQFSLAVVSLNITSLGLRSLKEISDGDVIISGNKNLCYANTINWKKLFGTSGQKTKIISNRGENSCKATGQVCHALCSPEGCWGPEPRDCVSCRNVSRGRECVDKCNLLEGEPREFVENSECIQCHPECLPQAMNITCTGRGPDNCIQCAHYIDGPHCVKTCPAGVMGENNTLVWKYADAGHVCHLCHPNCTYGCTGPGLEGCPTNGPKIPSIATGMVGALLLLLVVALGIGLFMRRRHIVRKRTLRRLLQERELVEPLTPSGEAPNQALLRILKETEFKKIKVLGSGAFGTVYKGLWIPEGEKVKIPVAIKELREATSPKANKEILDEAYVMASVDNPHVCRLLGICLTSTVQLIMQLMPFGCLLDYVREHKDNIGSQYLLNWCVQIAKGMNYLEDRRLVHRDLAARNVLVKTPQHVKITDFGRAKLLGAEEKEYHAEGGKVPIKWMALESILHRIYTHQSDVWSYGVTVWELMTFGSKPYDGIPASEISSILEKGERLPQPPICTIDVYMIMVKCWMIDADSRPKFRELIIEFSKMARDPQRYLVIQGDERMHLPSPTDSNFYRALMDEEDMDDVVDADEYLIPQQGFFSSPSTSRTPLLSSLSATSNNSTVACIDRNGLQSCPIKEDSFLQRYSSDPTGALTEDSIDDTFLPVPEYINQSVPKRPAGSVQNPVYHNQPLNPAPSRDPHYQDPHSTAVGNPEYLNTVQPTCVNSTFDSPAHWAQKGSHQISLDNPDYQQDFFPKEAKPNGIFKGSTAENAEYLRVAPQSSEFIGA
T1 sequence (P00533 25-1210): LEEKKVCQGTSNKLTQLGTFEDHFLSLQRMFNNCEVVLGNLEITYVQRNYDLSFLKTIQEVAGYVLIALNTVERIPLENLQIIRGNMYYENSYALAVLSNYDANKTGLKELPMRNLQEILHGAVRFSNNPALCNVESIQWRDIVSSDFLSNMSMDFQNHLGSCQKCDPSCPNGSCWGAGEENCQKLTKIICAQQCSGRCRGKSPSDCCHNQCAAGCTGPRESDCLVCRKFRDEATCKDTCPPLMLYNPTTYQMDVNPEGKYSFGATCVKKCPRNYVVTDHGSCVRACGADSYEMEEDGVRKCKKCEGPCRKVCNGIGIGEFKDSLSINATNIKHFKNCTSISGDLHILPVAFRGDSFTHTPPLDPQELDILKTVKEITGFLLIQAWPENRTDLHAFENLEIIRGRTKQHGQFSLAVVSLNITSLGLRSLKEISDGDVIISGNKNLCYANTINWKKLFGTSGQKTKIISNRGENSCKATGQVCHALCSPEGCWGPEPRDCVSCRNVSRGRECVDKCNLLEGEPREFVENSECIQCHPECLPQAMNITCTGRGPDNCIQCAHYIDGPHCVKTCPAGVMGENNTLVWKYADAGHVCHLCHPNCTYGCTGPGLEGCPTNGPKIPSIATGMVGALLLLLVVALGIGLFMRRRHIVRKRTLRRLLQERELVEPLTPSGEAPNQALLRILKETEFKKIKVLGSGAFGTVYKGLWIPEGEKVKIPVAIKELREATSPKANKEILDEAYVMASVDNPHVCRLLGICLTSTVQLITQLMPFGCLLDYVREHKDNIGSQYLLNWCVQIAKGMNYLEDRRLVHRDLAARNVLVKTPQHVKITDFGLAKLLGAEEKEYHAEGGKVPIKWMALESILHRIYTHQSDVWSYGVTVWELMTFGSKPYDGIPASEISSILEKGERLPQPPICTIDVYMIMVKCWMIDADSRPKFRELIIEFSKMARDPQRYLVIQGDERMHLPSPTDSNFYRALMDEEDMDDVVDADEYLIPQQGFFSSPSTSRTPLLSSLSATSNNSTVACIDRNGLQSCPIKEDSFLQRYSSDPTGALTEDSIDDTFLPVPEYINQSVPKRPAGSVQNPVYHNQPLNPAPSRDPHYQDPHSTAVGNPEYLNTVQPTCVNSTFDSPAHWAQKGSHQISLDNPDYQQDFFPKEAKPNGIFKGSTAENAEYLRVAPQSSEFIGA

Row | SMILES | GI50 [1] | DC50 (EGFR WT) | efficacy on NCI-H1975-luc BLI (tumor burden) [2] | GI50 [3] | DC50 (EGFR L858R-T790M; [4]) | DC50 (EGFR L858R-T790M; [5])
1 | O=C1CC[C@H](Nc2ccc(N3CCC(O)(CC(=O)N4CC5(C4)CN(c4ccc(-c6cc(F)c7c(c6)C(=O)N(C(C(=O)Nc6nccs6)c6ncn8c6CCC8)C7)cc4)C5)CC3)c(F)c2)C(=O)N1 (stereo partly drawn) [Compound 1, 2-(6,7-dihydro-5H-pyrrolo[1,2-c]imidazol-1-yl)-2-[6-[4-[2-[2-[1-[4-[[(3S)-2,6-dioxo-3-piperidyl]amino]-2-fluoro-phenyl]-4-hydroxy-4-piperidyl]acetyl]-2,6-diazaspiro[3.3]heptan-6-yl]phenyl]-4-fluoro-1-oxo-isoindolin-2-yl]-N-thiazol-2-yl-acetamide] | 9 nM | > 10000 nM | tumor regression | 12 nM | 8 nM | < 50 nM
2 | Cn1nc(N2CCC(=O)NC2=O)c2ccc([C@H]3CCN(CC(=O)N4CC5(C4)CN(c4ccc(-c6cc(F)c7c(c6)C(=O)N(C(C(=O)Nc6nccs6)c6ncn8c6CCC8)C7)cc4)C5)CC3(F)F)cc21 (stereo partly drawn) [Compound 2, 2-(6,7-dihydro-5H-pyrrolo[1,2-c]imidazol-1-yl)-2-[6-[4-[2-[2-[(4R)-4-[3-(2,4-dioxohexahydropyrimidin-1-yl)-1-methyl-indazol-6-yl]-3,3-difluoro-1-piperidyl]acetyl]-2,6-diazaspiro[3.3]heptan-6-yl]phenyl]-4-fluoro-1-oxo-isoindolin-2-yl]-N-thiazol-2-yl-acetamide] | 4 nM | > 10000 nM |  | 3 nM | 12 nM | < 50 nM
